Experimental data published in publication PMC7948474, “Structural basis of carnitine monooxygenase CntA substrate specificity, inhibition, and intersubunit electron transfer” (The Journal of Biological Chemistry, 2020).
“Also recorded” adds a separate entry of the source. Where two headings read alike, the source gives them in different places.

Tests used:
CutC = test system: CutC; parameters: method as in PMID 30082863; details: irreversible covalent bond in the CutC catalytic site; cited from earlier work
CntA [1] = molecular target: T1, CntA (Acinetobacter baumannii, UniProt D0C9N6); experiment: Inhibitory IC50 determination against CntA (UV-visible enzyme assay); assay type: biochemical
T1 construct: made in house; host or cells: Escherichia coli BL21(DE3)pLysS
T1 sequence (D0C9N6 1-371): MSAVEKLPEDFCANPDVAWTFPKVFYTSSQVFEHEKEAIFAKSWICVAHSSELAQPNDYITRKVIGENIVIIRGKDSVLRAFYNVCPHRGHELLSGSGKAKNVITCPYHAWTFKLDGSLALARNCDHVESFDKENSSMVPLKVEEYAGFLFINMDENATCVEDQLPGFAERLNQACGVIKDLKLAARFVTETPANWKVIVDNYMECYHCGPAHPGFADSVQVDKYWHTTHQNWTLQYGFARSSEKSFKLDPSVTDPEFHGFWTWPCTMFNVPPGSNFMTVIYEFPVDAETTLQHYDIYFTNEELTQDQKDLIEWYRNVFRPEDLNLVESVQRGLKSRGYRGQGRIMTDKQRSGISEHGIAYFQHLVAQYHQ
Protocol: (§1) All activity assays were performed on a BMG FLOUstar Omega 96-well plate reader, set at wavelength 340 nm with a sample volume of 200 μl. The assay comprised combining mixture A 60 μg CntA and 60 μg CntB with mixture B 0.25 mM L-carnitine and 0.25 mM NADH in a 10 mM Hepes buffer, pH 7.6 with 250 mM NaCl and 0.5 mM TCEP. […] The reactions were measured for 5 min recording the linear decrease of signal at 340 nm for NADH oxidation. The slope of the line was measured between 60 and 120 s to yield the rate.
Compounds in the Pathogen Box (https://www.mmv.org/mmv-open/pathogen-box/about-pathogen-box) were received as 10 mM stocks dissolved in dimethylsulfoxide (DMSO). The compounds were added such that the final concentration was 50 μM in the 200-μl reaction. As per the “UV-visible enzyme assays” methodology above, the protein in mixture A was incubated with inhibitor compounds for 20 min before commencing the assay.
[…]. For each concentration, four replicates were carried out. IC50 values were determined using a built-in “Dose Response Inhibition” – [Inhibitor] versus response model in Prism 8 for macOS v8.2.0.

[2] = test system: TMA production in A. baumannii cells; experiment: Evaluation of inhibitors in A. baumannii cell culture (TMA production from carnitine); assay type: cell-based, Acinetobacter baumannii; details: inhibitor 200 μM; carnitine 1 mM; 37 °C, 1 h; N = 3
Protocol: A. baumannii cells were cultured overnight in the M9 minimal media at 37 °C with 10 mM L-carnitine as the sole carbon source. The cells were then collected by centrifugation and washed twice in a buffer containing 10 mM Hepes, 1 mM NaCl (pH 7.6). After wash, the cells were resuspended in the same buffer to a density of OD600 of 0.4. […]. These cells with appropriate treatments were incubated at 37 °C for 1 h. The supernatant was then obtained by filtering through a 0.2-μm filter and analyzed by ion chromatography by quantifying TMA production and carnitine degradation as described previously ([13]).

CntA [3] = molecular target: T1, CntA; experiment: Substrate profiling of carnitine analogs with CntA (structure–activity relationship); assay type: biochemical; details: substrate analogs tested as CntA substrates
Protocol: as §1

[4] = substrate: CCCC[N+](C)(C)C; experiment: Michaelis–Menten kinetics of CntA (UV-visible NADH oxidation assay); assay type: biochemical, Acinetobacter baumannii; details: other: substrate of CntA; n = 4; pH 7.6
Protocol: as §1
(§2) Michaelis–Menten kinetic parameters were derived using the UV-visible enzyme assays methodology above. Substrate concentrations were varied from a top concentration of 2 mM and decreasing in a twofold manner for 10 successive dilutions. Observed rates were obtained from four independent measurements and fitted to a nonlinear regression Michaelis–Menten model in Prism 8 for macOS v8.2.0.

[5] = substrate: C[N+](C)(C)CC(O)CC(=O)[O-]; experiment: as above; assay type: biochemical, Acinetobacter baumannii; details: other: substrate of CntA; n = 4; pH 7.6
Protocol: as §1, §2

[6] = substrate: C[N+](C)(C)CCCC(=O)[O-]; experiment: as above; assay type: biochemical, Acinetobacter baumannii; details: other: substrate of CntA; n = 4; pH 7.6
Protocol: as §1, §2

[7] = substrate: C[N+](C)(C)NCCC(=O)[O-]; experiment: as above; assay type: biochemical, Acinetobacter baumannii; details: other: substrate of CntA; n = 4; pH 7.6
Protocol: as §1, §2

Question: Which EC50 (CutC) does the source give for `C[N+](C)(CF)CCO` [FMC, N-(fluoromethyl)-2-hydroxy-N,N-dimethylethan-1-aminium] here?
Answer: 56 nM

Question: Which IC50 (CntA [1]) does the source give for `c1csc(-c2cnc3sc(NCC4CCOCC4)nn23)c1` [MMV1, N-[(oxan-4-yl)methyl]-5-(thiophen-2-yl)imidazo[2,1-b][1,3,4]thiadiazol-2-amine] here?
Answer: 5.8 µM

Question: What about the “Effect on TMA formation from carnitine in A. baumannii culture” value [2] of the same molecule?
Answer: did not reduce TMA production; also recorded: did not inhibit TMA formation

Question: Which IC50 (CntA [1]) does the source give for `Brc1cncc(-c2cc(NCCCn3ccnc3)nc(-c3ccccc3)n2)c1` [MMV3, 6-(5-bromopyridin-3-yl)-N-[3-(1H-imidazol-1-yl)propyl]-2-phenylpyrimidin-4-amine] here?
Answer: 1.1 µM

Question: What about the “Effect on TMA formation from carnitine in A. baumannii culture” value [2] of the same molecule?
Answer: significant reduction; also recorded: almost completely inhibited TMA formation

Question: With `N#CS` [SCN, thiocyanate] as the molecule, how does the IC50 (CntA [1]; dose response, N=3, read-out: IC50 (inhibition of CntA activity)) read?
Answer: 35000 µM

Question: For `C[N+](C)(C)CC(O)CC(=O)[O-]` (centres unmarked) [compound 1, Carnitine], which “Oxidation by CntA (activity as substrate)” value (“Oxidation by CntA” below) (CntA [3]) is on record?
Answer: oxidizing

Question: Which “Oxidation by CntA” value (CntA [3]) does the source give for `C[N+](C)(C)CCCC(=O)[O-]` [compound 2, γ-butyrobetaine] here?
Answer: oxidizing

Question: With `C[N+](C)(C)NCCC(=O)[O-]` [compound 3, Meldonium] as the molecule, how does the “Oxidation by CntA” value (CntA [3]) read?
Answer: can also oxidize

Question: With `CCCC[N+](C)(C)C` [compound 4, (1-Butyl)Trimethylammonium] as the molecule, how does the “Oxidation by CntA” value (CntA [3]) read?
Answer: can also oxidize

B1: CntA (Acinetobacter baumannii ATCC 19606 = CIP 70.34 = JCM 6841) (protein)
chain: MSAVEKLPEDFCANPDVAWTFPKVFYTSSQVFEHEKEAIFAKSWICVAHSSELAQPNDYITRKVIGENIVIIRGKDSVLRAFYNVCPHRGHELLSGSGKAKNVITCPYHAWTFKLDGSLALARNCDHVESFDKENSSMVPLKVEEYAGFLFINMDENATCVEDQLPGFAERLNQACGVIKDLKLAARFVTETPANWKVIVDNYMECYHCGPAHPGFADSVQVDKYWHTTHQNWTLQYGFARSSEKSFKLDPSVTDPEFHGFWTWPCTMFNVPPGSNFMTVIYEFPVDAETTLQHYDIYFTNEELTQDQKDLIEWYRNVFRPEDLNLVESVQRGLKSRGYRGQGRIMTDKQRSGISEHGIAYFQHLVAQYHQ
notes: made in house; host or cells: Escherichia coli BL21(DE3)pLysS
Question: Which Vmax [4] does the source give for B1 here?
Answer: 30.1 (± 3.4) nmol/min/mg

Question: And the Vmax [5]?
Answer: 59.0 (± 3.1) nmol/min/mg

Question: And the Vmax [6]?
Answer: 76.06 (± 1.6) nmol/min/mg

Question: What about the Vmax [7] of the same molecule?
Answer: 43.8 (± 1.4) nmol/min/mg
